Experimental data taken from paper PMC8151276, “An Integrated Approach toward NanoBRET Tracers for Analysis of GPCR Ligand Engagement” (Molecules, 2021).

Experiments:
P2RY14 = target: T1, P2RY14 (Homo sapiens, UniProt Q15391); test: NanoBRET screen HiBiT-P2RY14 in HEK293; type: binding; conditions: P2RY14
T1 construct: purchased Promega (in-house HiBiT-GPCR construct library, NanoBRET)
T1 sequence (Q15391 1-338): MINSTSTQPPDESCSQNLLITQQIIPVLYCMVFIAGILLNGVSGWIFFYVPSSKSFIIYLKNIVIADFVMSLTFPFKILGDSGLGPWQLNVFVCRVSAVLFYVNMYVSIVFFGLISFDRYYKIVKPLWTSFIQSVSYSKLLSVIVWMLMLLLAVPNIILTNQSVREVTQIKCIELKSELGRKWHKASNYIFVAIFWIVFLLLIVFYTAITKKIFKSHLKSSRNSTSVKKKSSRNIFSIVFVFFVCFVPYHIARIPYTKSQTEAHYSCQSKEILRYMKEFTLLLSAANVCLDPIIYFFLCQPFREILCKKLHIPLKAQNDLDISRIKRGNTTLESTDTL
Method: (§1) Each tracer candidate was screened across the entire library of HiBiT-GPCR constructs using NanoBRET as the detection modality. As depicted in Figure 4A, the specificity of interactions was evaluated through decrease in BRET due to competitive displacement of a bound tracer by excess parental compound. Each tracer was analyzed for binding to each HiBiT-GPCR fusion in the absence and in the presence of competing parental compound. Briefly, HEK293 cells were transfected with HiBiT-GPCR constructs diluted into promoterless DNA to reduce expression and maximize translocation to the cell surface. Each tracer candidate was then screened at concentrations of 1 μM and 0.1 μM across cells expressing these fusions. Cells were treated for 1.5 h with tracer either alone or in the presence of 20 μM competing parental compound (i.e., control). BRET was measured upon addition of purified LgBiT and subsequent complementation with HiBiT genetically fused to a GPCR. The specificity of interactions was assessed through a decrease in BRET signal due to competitive displacement of the bound tracer. To further gauge the robustness of these interactions, the fold response over the control (i.e., BRETtracer/BRETcontrol) was calculated. We chose a 1.5-fold response, which translates to ≥7-fold signal over noise as the minimal threshold required to score an interaction as positive. […]. Below we highlight the screening results obtained for our exemplary fluorescent tracers based on Clozapine, Amitriptyline and AZD1283.
(§2) HiBiT-GPCR DNA constructs were diluted in 10 mM Tris pH 8 to a final concentration of 0.01 μg/μL, arrayed in 96-well plates and stored at −20 °C. For transfection, HEK293 cells were suspended in Opti-MEM (without phenol red) supplemented with 2% fetal bovine serum (Seradigm) and 100 units/mL penicillin–streptomycin (Gibco) at a final concentration of 220,000 cells/mL and dispensed into white 96-well plates at 90 μL/well. Subsequent transfections and screens were carried using an Agilent Bravo Automated Liquid Handling Platform. First, the 96-well HiBiT DNA arrays were diluted 25-fold in Opti-MEM (without serum or phenol red) to a final concentration of 0.0004 μg/μL and 20 μL of the diluted DNAs were transferred into new 96-well plates. Next, promoterless carrier DNA (1 μg/μL) was diluted 25-fold (0.04 μg/μL) and then dispensed into the diluted arrays at 20 μL/well. Following brief mixing, Viafect transfection reagent (Promega) diluted 16-fold into Opti-MEM was dispensed into the plates at 40 μL/well. After mixing by pipetting, plates were incubated for 10 min on the pipetting station deck. The DNA-transfection reagent complexes were then added to plates containing cells. To facilitate the screen, 10 μL of DNA-transfection reagent complexes were added in duplicates to the top 4 and bottom 4 rows, resulting in two identical 48-well arrays per plate. Plates with transfected cells were incubated for 18–20 h at 37 °C/5% CO2. A screen of each tracer across the entire library using two different concentrations requires duplicate plates of transfected cells. Depending on the number of tracers being screened, transfections can be scaled up using the same ratios. The next day, for each tracer, four 20× screening solutions in tracer dilution buffer (Promega) were prepared: two duplicates at final concentration of 20 μM and two duplicates at a final concentration of 2 μM. A competing unmodified compound was added to one of each duplicate at a final concentration of 400 μM. The four resulting solutions were diluted 4-fold in Opti-MEM without serum or phenol red to generate 5× solutions (5 µM and 0.5 µM tracer +/− 100 μM competing compound). To screen the library, a BioTek MultiFlo FX liquid dispenser was used to dispense 22.5 µL of tracer solution to the top 4 rows and 22.5 µL tracer + competing compound solution to the 4 bottom rows. Plates were briefly mixed on an orbital shaker and incubated for 1.5 h at room temperature. […]

GABBR2 = target: T2, GABBR2 (Homo sapiens, UniProt O75899); test: NanoBRET screen HiBiT-GABBR2 in HEK293; type: binding; conditions: GABBR2
T2 construct: purchased Promega (in-house HiBiT-GPCR construct library, NanoBRET)
T2 sequence (O75899 42-941): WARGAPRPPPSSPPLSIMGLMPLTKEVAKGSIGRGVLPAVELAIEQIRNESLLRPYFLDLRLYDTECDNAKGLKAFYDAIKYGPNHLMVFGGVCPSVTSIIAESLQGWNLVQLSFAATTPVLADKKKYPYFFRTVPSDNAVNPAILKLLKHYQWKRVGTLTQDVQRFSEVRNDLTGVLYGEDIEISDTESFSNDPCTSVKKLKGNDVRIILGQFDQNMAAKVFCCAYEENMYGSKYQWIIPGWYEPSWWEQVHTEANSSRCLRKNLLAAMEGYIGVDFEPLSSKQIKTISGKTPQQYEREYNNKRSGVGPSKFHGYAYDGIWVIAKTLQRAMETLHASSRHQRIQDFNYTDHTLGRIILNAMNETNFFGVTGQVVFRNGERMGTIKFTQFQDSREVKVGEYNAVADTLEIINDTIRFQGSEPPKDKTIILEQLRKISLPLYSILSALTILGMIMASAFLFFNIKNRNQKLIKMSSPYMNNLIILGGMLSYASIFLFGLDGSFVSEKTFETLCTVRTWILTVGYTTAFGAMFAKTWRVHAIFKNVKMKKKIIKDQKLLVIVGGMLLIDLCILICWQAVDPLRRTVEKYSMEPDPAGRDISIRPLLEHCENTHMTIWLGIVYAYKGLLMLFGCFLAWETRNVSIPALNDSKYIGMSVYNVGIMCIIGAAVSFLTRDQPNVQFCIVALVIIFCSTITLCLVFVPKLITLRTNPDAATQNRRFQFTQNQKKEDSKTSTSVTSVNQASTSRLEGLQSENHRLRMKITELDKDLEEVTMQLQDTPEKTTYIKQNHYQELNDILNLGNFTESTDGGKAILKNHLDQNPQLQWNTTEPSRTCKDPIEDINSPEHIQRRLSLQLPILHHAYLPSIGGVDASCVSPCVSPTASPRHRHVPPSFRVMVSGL
Method: as §1, §2

Compound | NanoBRET Fold Response (P2RY14; tracer 0.1μM) | NanoBRET Fold Response (P2RY14; tracer 1μM) | NanoBRET Fold Response (GABBR2; tracer 0.1μM) | NanoBRET Fold Response (GABBR2; tracer 1μM) | other results
CN1CCN(C2=Nc3cc(Cl)ccc3Nc3ccc(CNC(=O)CCOCCOCCOCCOCCNC(=O)CCc4ccc5n4[B-](F)(F)[N+]4=C(c6ccc[nH]6)C=CC4=C5)cc32)CC1 [Clozapine-b-2-NB590] |  |  |  |  | NanoBRET Fold Response (P2RY14; 0.1μM tracer): 1.01; NanoBRET Fold Response (P2RY14; 1μM tracer): 0.99; NanoBRET Fold Response (GABBR2; 0.1μM tracer): 0.96; NanoBRET Fold Response (GABBR2; 1μM tracer): 1.07
CN1CCN(C2=Nc3cc(Cl)ccc3N(CC(=O)NCCOCCOCCOCCOCCNC(=O)CCc3ccc4n3[B-](F)(F)[N+]3=C(c5ccc[nH]5)C=CC3=C4)c3ccccc32)CC1 [Clozapine-c-2-NB590] |  |  |  |  | NanoBRET Fold Response (P2RY14; 0.1μM tracer): 0.96; NanoBRET Fold Response (P2RY14; 1μM tracer): 0.89; NanoBRET Fold Response (GABBR2; 0.1μM tracer): 0.99; NanoBRET Fold Response (GABBR2; 1μM tracer): 1.02
O=C(CCOCCOCCOCCOCCNC(=O)CCc1ccc2n1[B-](F)(F)[N+]1=C(c3ccc[nH]3)C=CC1=C2)NCCCN1CCN(C2=Nc3ccccc3Oc3ccc(Cl)cc32)CC1 [Loxapine-a-2-NB590] | 0.94 | 0.98 | 1.03 | 0.85 | 
COc1ccccc1N1CCN(CCCCN2C(=O)c3ccc(CNC(=O)CCOCCOCCOCCOCCNC(=O)CCc4ccc5n4[B-](F)(F)[N+]4=C(c6ccc[nH]6)C=CC4=C5)cc3C2=O)CC1 [NAN-190-2-NB590] | 1.02 |  | 0.95 | 1.04 | 
COc1ccccc1N1CCN(CCCCN2C(=O)c3ccc(CNC(=O)CCOCCNC(=O)c4ccc(CNC(=O)CCc5ccc6n5[B-](F)(F)[N+]5=C(c7ccc[nH]7)C=CC5=C6)cc4)cc3C2=O)CC1 [NAN-190-3-NB590] | 0.95 | 1.06 | 1.03 | 1.10 | 
O=C(CCc1ccc2n1[B-](F)(F)[N+]1=C(c3ccc[nH]3)C=CC1=C2)NCc1ccc(C(=O)NCCOCCC(=O)N[C@@H]2CC[C@@]3(O)[C@H]4Cc5ccc(O)c6c5[C@@]3(CCN4CC3CC3)[C@H]2O6)cc1 [Naltrexone-3-NB590] | 0.95 | 1.00 | 0.80 | 1.11 | 
Cc1cc2c(s1)Nc1ccccc1N=C2N1CCN(CCCNC(=O)CCOCCOCCOCCOCCNC(=O)CCc2ccc3n2[B-](F)(F)[N+]2=C(c4ccc[nH]4)C=CC2=C3)CC1 [Olanzapine-a-2-NB590] | 1.05 | 1.00 | 1.01 | 0.82 | 
O=C(CCc1ccc2n1[B-](F)(F)[N+]1=C(c3ccc[nH]3)C=CC1=C2)NCc1ccc(C(=O)NCCOCCOCCNCC(O)COc2cccc3ccccc23)cc1 (stereo not shown) [Propranolol-3-NB590] |  |  |  |  | NanoBRET Fold Response (P2RY14; 0.1μM): 1.10; NanoBRET Fold Response (P2RY14; 1μM): 1.00; NanoBRET Fold Response (GABBR2; 0.1μM): 0.96; NanoBRET Fold Response (GABBR2; 1μM): 1.13
